{"source": "patent US20260248920A1", "about": "“COMPOSITION FOR PREVENTING OR TREATING INFLAMMATORY DISEASES, CONTAINING POLY(ORGANOPHOSPHAZENE) POLYMER” (KOREA INSTITUTE OF SCIENCE AND TECHNOLOGY, priority 2022, published 2026)", "key": {"[1]": {"system": "anti-inflammatory cytokines IL-4 and IL-10", "experiment": "RT-PCR of blood in defective Achilles tendon model: anti-inflammatory cytokines", "assay_type": "in vivo, mice", "details": "4 weeks"}, "[2]": {"system": "defective Achilles tendon model", "experiment": "Hydroxyproline content analysis of tendon tissue", "assay_type": "in vivo, mouse", "experimental": "All experiments using mice were conducted in compliance with the relevant laws and institutional guidelines of the Institutional Animal Care and Use Committee (IACUC) of Korea University Medical Center and received IACUC approval (Approval No. KOREA-2018-0049). […] […] 1 mg) and […] […] To hydrolyze the tendon tissue, 5 mg was immersed in a 6N HCl solution and then heated at 120° C. for 3 hours. After hydrolysis, the tendon tissue was centrifuged at 3000 rpm for 3 minutes, and the supernatant was collected and transferred to a 96-well plate. Thereafter, the 96-well plate was incubated in a dry oven at 60° C. for 12 hours. A Chloramine T reagent (6 μL) was mixed with an oxidation buffer (94 μL), and the mixture was added to each sample or a standard solution. The resulting solution was slowly transferred to a 96-well plate, and a p-dimethylaminobenzaldehyde reagent (100 μL) was added to each sample or standard, and then incubated at 60° C. for 90 minutes. The hydroxyproline content was measured at an optical density of […] using a Flash Multimode Reader (VarioskanTM, Thermo Scientific, USA)."}, "[3]": {"system": "defective Achilles tendon model", "experiment": "Biomechanical test of Achilles tendon (stiffness, tensile strength)", "assay_type": "in vivo, rats"}, "[4]": {"details": "cited from earlier work"}, "[5]": {"details": "in vivo; cited from earlier work"}}, "note": "Where two headings read alike, the source gives them in different places."}
{"compound": "Cc1ccc(-c2cc(C(F)(F)F)nn2-c2ccc(S(N)(=O)=O)cc2)cc1", "note": "[CXB, Celecoxib]", "values": [{"measurement": "IL-4 expression increase compared with control group", "setting": "[1]; treated once", "result": 1.2, "unit": "fold"}, {"measurement": "IL-10 expression increase compared with control group", "setting": "[1]; treated once", "result": 1.3, "unit": "fold"}, {"measurement": "IL-4 expression increase compared with control group", "setting": "[1]; treated three times", "result": 1.3, "unit": "fold"}, {"measurement": "IL-10 expression increase compared with control group", "setting": "[1]; treated three times", "result": 1.5, "unit": "fold"}, {"measurement": "hydroxyproline content", "setting": "[2]; injected once per week", "result": 15.3, "unit": "µg/mg"}, {"measurement": "hydroxyproline content", "setting": "[2]; injected three times per week", "result": 17.2, "unit": "µg/mg"}, {"measurement": "stiffness", "setting": "[3]; injected once per week", "result": 16.4, "unit": "N/mm"}, {"measurement": "tensile strength", "setting": "[3]; injected once per week", "result": 12.5, "unit": "MPa"}, {"measurement": "stiffness", "setting": "[3]; injected three times per week", "result": 18.6, "unit": "N/mm"}]}
{"compound": "CC1(C)O[C@@H]2C[C@H]3[C@@H]4CCC5=CC(=O)C=C[C@]5(C)[C@@]4(F)[C@@H](O)C[C@]3(C)[C@]2(C(=O)CO)O1", "note": "[TCA, triamcinolone acetonide]", "values": [{"measurement": "half-life", "setting": "[4]; in vivo", "result": 1.47, "unit": "h"}, {"measurement": "half-life of TCA without a delivery carrier", "setting": "[5]", "result": 1.27, "unit": "h"}]}
{"compound": "O=C(O)Cc1ccccc1Nc1c(Cl)cccc1Cl", "note": "[diclofenac]", "values": [{"measurement": "half-life", "setting": "[4]; direct IA administration, reported by Larsen et al.", "result": 5.2, "unit": "h"}]}
